pIC50: −log10 of the molar value.
target: GST-hRIPK1 (8-327) (Homo sapiens (Human), UniProt Q13546); assay: Fluorescent Polarization Binding (FP Binding) assay, RIPK1; settings: 10 nM GST-hRIPK1 (8-327), 5 nM fluorescent-labeled ligand, RT, 30 min, mean of at least two independent experiments
Procedure, shortened: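 Binding by fluorescence polarisation at RT: 10 nM baculovirus-expressed GST-hRIPK1 (8-327) and 5 nM fluorescent ligand, 30 min, in 50 mM HEPES pH 7.5, 50 mM MgCl2, 0.02% CHAPS, 1% DMSO. FP read at ex 531/em 595 nm. IC50 from normalised percent inhibition, mean of ≥2 experiments.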

Chain of GST-hRIPK1 (8-327) (Q13546 8-327): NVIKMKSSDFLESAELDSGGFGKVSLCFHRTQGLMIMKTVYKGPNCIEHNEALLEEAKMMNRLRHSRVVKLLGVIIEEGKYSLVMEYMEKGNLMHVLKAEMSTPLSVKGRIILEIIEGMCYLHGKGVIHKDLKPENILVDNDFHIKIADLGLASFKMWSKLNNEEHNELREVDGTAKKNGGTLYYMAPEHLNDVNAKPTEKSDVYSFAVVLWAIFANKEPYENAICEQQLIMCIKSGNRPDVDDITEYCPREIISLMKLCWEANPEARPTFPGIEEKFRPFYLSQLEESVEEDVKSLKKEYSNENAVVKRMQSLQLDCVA

With `CC(C(=O)N1CCOc2c(C#N)cncc2C1)(C(F)(F)F)C(F)(F)F` [Example 152, 4-[3,3,3-trifluoro-2-methyl-2-(trifluoromethyl)propanoyl]-3,5-dihydro-2H-pyrido[3,4-f][1,4]oxazepine-9-carbonitrile] as the compound, how does the pIC50 read?
The pIC50 was 6.00 to 7.00.

How did the pIC50 turn out when `Cc1cnc(N2CCC(F)(C(=O)N3CCOc4c(C#N)cncc4C3)CC2)nc1` [Example 163, 4-[4-fluoro-1-(5-methylpyrimidin-2-yl)piperidine-4-carbonyl]-3,5-dihydro-2H-pyrido[3,4-f][1,4]oxazepine-9-carbonitrile] was run?
The pIC50 was 6.00 to 7.00.

`CC(C)(C(=O)N1CCOc2c(C#N)cncc2C1)C1CC1C#N` (centres unmarked) [Example 83, 4-[2-(2-cyanocyclopropyl)-2-methyl-propanoyl]-3,5-dihydro-2H-pyrido[3,4-f][1,4]oxazepine-9-carbonitrile] was tested. Which pIC50 did it give?
The pIC50 was < 6.00.

`CC(CF)(CF)C(=O)N1CCOc2c(C#N)cncc2C1` [Example 147, 4-[3-fluoro-2-(fluoromethyl)-2-methyl-propanoyl]-3,5-dihydro-2H-pyrido[3,4-f][1,4]oxazepine-9-carbonitrile] was tested. Which pIC50 did it give?
Its pIC50 is 7.00 to 10.00.

`CC(C(=O)N1CCOc2c(F)cccc2C1)C(F)(F)F` (centres unmarked) [Example 17, 3,3,3-trifluoro-1-(9-fluoro-3,5-dihydro-2H-1,4-benzoxazepin-4-yl)-2-methyl-propan-1-one] was tested. Which pIC50 did it give?
Its pIC50 is < 6.00.

How did the pIC50 turn out when `CC1(C(=O)N2CCOc3c(C#N)cncc3C2)CC1(F)F` (centres unmarked) [Example 50, 4-(2,2-difluoro-1-methyl-cyclopropanecarbonyl)-3,5-dihydro-2H-pyrido[3,4-f][1,4]oxazepine-9-carbonitrile] was run?
The pIC50 was 6.00 to 7.00.

With `CCOc1nc(N2CCC(F)(C(=O)N3CCOc4c(C#N)cncc4C3)CC2)ncc1F` [Example 178, 4-[1-(4-ethoxy-5-fluoro-pyrimidin-2-yl)-4-fluoro-piperidine-4-carbonyl]-3,5-dihydro-2H-pyrido[3,4-f][1,4]oxazepine-9-carbonitrile] as the compound, how does the pIC50 read?
The pIC50 was 7.00 to 10.00.

How did the pIC50 turn out when `CC(C(=O)N1CCOc2c(C#N)cncc2C1)(C(F)F)C1CC1` (centres unmarked) [Example 56, 4-(2-cyclopropyl-3,3-difluoro-2-methyl-propanoyl)-3,5-dihydro-2H-pyrido[3,4-f][1,4]oxazepine-9-carbonitrile] was run?
The pIC50 was 7.00 to 10.00.

`CSC(C)(C)C(=O)N1CCOc2c(C#N)cncc2C1` [Example 148, 4-(2-methyl-2-methylsulfanyl-propanoyl)-3,5-dihydro-2H-pyrido[3,4-f][1,4]oxazepine-9-carbonitrile] was tested. Which pIC50 did it give?
The pIC50 was 7.00 to 10.00.

How did the pIC50 turn out when `CC(C)(CC(F)F)C(=O)N1CCOc2c(C#N)cncc2C1` [Example 149, 4-(4,4-difluoro-2,2-dimethyl-butanoyl)-3,5-dihydro-2H-pyrido[3,4-f][1,4]oxazepine-9-carbonitrile] was run?
Its pIC50 is 6.00 to 7.00.

With `C[C@@H]1COc2c(C#N)cncc2CN1C(=O)C1CCN(c2ncc(F)cn2)CC1` [Example 104, (3R)-4-(1-(5-fluoropyrimidin-2-yl)piperidine-4-carbonyl)-3-methyl-2,3,4,5-tetrahydropyrido[3,4-f][1,4]oxazepine-9-carbonitrile] as the compound, how does the pIC50 read?
Its pIC50 is 7.00 to 10.00.

With `N#Cc1cnc(N2CCC(F)(C(=O)N3CCOc4c(F)cncc4C3)CC2)nc1` [Example 159, 2-[4-fluoro-4-(9-fluoro-3,5-dihydro-2H-pyrido[3,4-f][1,4]oxazepine-4-carbonyl)-1-piperidyl]pyrimidine-5-carbonitrile] as the compound, how does the pIC50 read?
The pIC50 was 6.00 to 7.00.

With `N#Cc1cncc2c1OCCN(C(=O)C1(F)CCN(c3ncc(C(F)F)cn3)CC1)C2` [Example 189, 4-[1-[5-(difluoromethyl)pyrimidin-2-yl]-4-fluoro-piperidine-4-carbonyl]-3,5-dihydro-2H-pyrido[3,4-f][1,4]oxazepine-9-carbonitrile] as the compound, how does the pIC50 read?
The pIC50 was 6.00 to 7.00.

`CC(C)(C)C(=O)N1CCOc2c(F)cncc2C1` [Example 80, 1-(9-fluoro-3,5-dihydro-2H-pyrido[3,4-f][1,4]oxazepin-4-yl)-2,2-dimethyl-propan-1-one] was tested. Which pIC50 did it give?
The pIC50 was 6.00 to 7.00.

With `CC1(C(=O)N2CCOc3c(C#N)cncc3C2)CCOC1` (centres unmarked) [Example 42, 4-(3-methyltetrahydrofuran-3-carbonyl)-3,5-dihydro-2H-pyrido[3,4-f][1,4]oxazepine-9-carbonitrile] as the compound, how does the pIC50 read?
Its pIC50 is 6.00 to 7.00.

same assay, conditions: GST-hRIPK1 (8-327), mean of at least two independent experiments

With `CC1(C(=O)N2CCOc3c(C#N)cncc3C2)CCN(c2ncc(F)c(=O)[nH]2)CC1(F)F` (centres unmarked) [Example 216, 4-[3,3-difluoro-1-(5-fluoro-6-oxo-1H-pyrimidin-2-yl)-4-methyl-piperidine-4-carbonyl]-3,5-dihydro-2H-pyrido[3,4-f][1,4]oxazepine-9-carbonitrile] as the compound, how does the pIC50 read?
Its pIC50 is 6.00 to 7.00.

With `CC(C)(C(=O)N1CCOc2c(C#N)cncc2C1)C1CC(OC(F)(F)F)C1` (centres unmarked) [Example 279, 4-[2-methyl-2-[3-(trifluoromethoxy)cyclobutyl]propanoyl]-3,5-dihydro-2H-pyrido[3,4-f][1,4]oxazepine-9-carbonitrile] as the compound, how does the pIC50 read?
The pIC50 was 7.00 to 10.00.

How did the pIC50 turn out when `CC1(C(=O)N2CCOc3c(C#N)cncc3C2)CCN(c2ncccn2)CC1(F)F` (single isomer, unassigned) [Example 297, 4-[3,3-Difluoro-4-methyl-1-pyrimidin-2-yl-piperidine-4-carbonyl]-3,5-dihydro-2H-pyrido[3,4-f][1,4]oxazepine-9-carbonitrile] was run?
The pIC50 was 7.00 to 10.00.

With `N#Cc1cncc2c1OCC1(CC1)N(C(=O)C1CCN(c3ncc(F)cn3)CC1)C2` [Example 230, 4-[1-(5-fluoropyrimidin-2-yl)piperidine-4-carbonyl]spiro[2,5-dihydropyrido[3,4-f][1,4]oxazepine-3,1′-cyclopropane]-9-carbonitrile] as the compound, how does the pIC50 read?
The pIC50 was 6.00 to 7.00.

`N#Cc1cncc2c1OCCN(C(=O)C1(O)CCN(c3ncc(F)cn3)CC1F)C2` (centres unmarked) [Example 208, 4-[3-fluoro-1-(5-fluoropyrimidin-2-yl)-4-hydroxy-piperidine-4-carbonyl]-3,5-dihydro-2H-pyrido[3,4-f][1,4]oxazepine-9-carbonitrile] was tested. Which pIC50 did it give?
The pIC50 was 6.00 to 7.00.

With `CC(F)(F)C(C)(C(=O)N1CCOc2c(C#N)cncc2C1)C(F)F` (centres unmarked) [Example 269, 4-[2-(difluoromethyl)-3,3-difluoro-2-methyl-butanoyl]-3,5-dihydro-2H-pyrido[3,4-f][1,4]oxazepine-9-carbonitrile] as the compound, how does the pIC50 read?
The pIC50 was 6.00 to 7.00.

With `CC1(C(=O)N2CCOc3c(C#N)cncc3C2)CCN(c2nccn3ncnc23)CC1(F)F` (centres unmarked) [Example 222, 4-[3,3-difluoro-4-methyl-1-([1,2,4]triazolo[1,5-a]pyrazin-8-yl)piperidine-4-carbonyl]-3,5-dihydro-2H-pyrido[3,4-f][1,4]oxazepine-9-carbonitrile] as the compound, how does the pIC50 read?
The pIC50 was 7.00 to 10.00.

How did the pIC50 turn out when `N#Cc1cncc2c1OCCN(C(=O)C1CCN(c3ccnc4ccnn34)CC1)C2` [Example 205, 4-(1-pyrazolo[1,5-a]pyrimidin-7-ylpiperidine-4-carbonyl)-3,5-dihydro-2H-pyrido[3,4-f][1,4]oxazepine-9-carbonitrile] was run?
The pIC50 was 6.00 to 7.00.

With `N#Cc1cncc2c1OCCN(C(=O)C1CCN(c3ncc(F)cn3)CC1(F)F)C2` (centres unmarked) [Example 243, 4-[3,3-difluoro-1-(5-fluoropyrimidin-2-yl)piperidine-4-carbonyl]-3,5-dihydro-2H-pyrido[3,4-f][1,4]oxazepine-9-carbonitrile] as the compound, how does the pIC50 read?
The pIC50 was 6.00 to 7.00.

With `N#Cc1cncc2c1OCCN(C(=O)C1CCN(c3ncc(F)cn3)CC1O)C2` (centres unmarked) [Example 211, 4-[1-(5-fluoropyrimidin-2-yl)-3-hydroxy-piperidine-4-carbonyl]-3,5-dihydro-2H-pyrido[3,4-f][1,4]oxazepine-9-carbonitrile] as the compound, how does the pIC50 read?
The pIC50 was 6.00 to 7.00.

With `O=C(C1CCN(c2ncc(F)cn2)C[C@@H]1F)N1CCOc2c(F)cncc2C1` (some centres unmarked) [Example 247] as the compound, how does the pIC50 read?
The pIC50 was 7.00 to 10.00.

Reference: patent US11203600B2 (Denali Therapeutics Inc., priority 2017, dated 2021)
